Results as given in US20160318866A1, “SUBSTITUTED BIPIPERIDINYL DERIVATIVES” (Bayer Pharma Aktiengesellschaft, priority 2013, published 2016).
Counter-ions that a name gives are not always drawn.

Target: T1, human α2C receptor (Homo sapiens, UniProt P18825)
T1 construct: expressed in transfected cells; host or cells: CHO cells, also recombinantly expressing chimeric G protein Gαqi3 and mitochondrial obelin (mtOb)
T1 sequence (P18825 1-462): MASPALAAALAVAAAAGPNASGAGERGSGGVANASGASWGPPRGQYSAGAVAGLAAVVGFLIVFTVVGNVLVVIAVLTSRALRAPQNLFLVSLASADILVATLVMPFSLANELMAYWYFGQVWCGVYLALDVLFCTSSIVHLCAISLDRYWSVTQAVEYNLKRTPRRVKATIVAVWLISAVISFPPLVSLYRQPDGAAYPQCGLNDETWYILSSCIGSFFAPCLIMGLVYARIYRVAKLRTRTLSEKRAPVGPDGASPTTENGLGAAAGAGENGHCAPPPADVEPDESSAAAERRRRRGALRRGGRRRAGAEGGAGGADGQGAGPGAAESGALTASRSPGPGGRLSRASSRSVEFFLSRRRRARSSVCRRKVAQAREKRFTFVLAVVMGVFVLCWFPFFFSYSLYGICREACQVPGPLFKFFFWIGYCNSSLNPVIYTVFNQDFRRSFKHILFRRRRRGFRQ
Assay: Antagonism against the adrenoreceptor α2C (luminescence, recombinant CHO cell line)
Format: cell-based
Conditions: antagonism against adrenoreceptor α2C; noradrenaline 20 nM; tested up to 10 μM; read-out: IC50
Protocol: Antagonism against the adrenoreceptor α1A was tested using a recombinant human α1A receptor CHO cell line which additionally also recombinantly expresses mtAeq (mitochondrial aequorin). Antagonism against the adrenoreceptor α2A was tested using a recombinant human α2A-Gα16 receptor fusion protein CHO cell line (PerkinElmer Life Sciences) which additionally also recombinantly expresses mtAeq. Antagonism against the adrenoreceptor α2B was tested using a recombinant human α2B receptor CHO cell line (PerkinElmer Life Sciences) which additionally also recombinantly expresses mtAeq. Antagonism against the adrenoreceptor α2C was tested using a recombinant human α2C receptor CHO cell line which additionally also recombinantly expresses a chimaric G protein (Gαqi3) and mtOb (mitochondrial obelin).
The cells were cultivated at 37° C. and 5% CO2 in Dulbecco's modified Eagle's Medium/NUT mix F12 with L-glutamine which additionally contains 10% (v/v) inactivated foetal calf serum, 1 mM sodium pyruvate, 0.9 mM sodium bicarbonate, 50 U/ml penicillin, 50 μg/ml streptomycin, 2.5 μg/ml amphotericin B and 1 mg/ml Geneticin. The cells were passaged with enzyme-free Hank's-based cell dissociation buffer. All cell culture reagents used are from Invitrogen (Carlsbad, USA).
Luminescence measurements were carried out on white 384-well microtitre plates. 2000 cells/well were plated in a volume of 25 μl and cultivated for one day at 30° C. and 5% CO2 in cell culture medium with coelenterazine (α2A and α2B: 5 μg/ml; α1a/c and α2C: 2.5 μg/ml). Serial dilutions of the test substances (10 μl) were added to the cells. After 5 minutes, noradrenalinee was added to the cells (35 μl; final concentrations: 20 nM (α1a/c and α2C) or 200 nM (α2A and α2B)), and the emitted light was measured for 50 seconds using a CCD (charge-coupled device) camera (Hamamatsu Corporation, Shizuoka, Japan) in a light-tight box. The test substances were tested up to a maximum concentration of 10 μM. The IC50 values were calculated from the appropriate dose-response curves.

| Structure (SMILES) | IC50 [nM] |
| --- | --- |
| CC(C)(O)c1ccc(C(=O)N2CCC(N3CCCC(COC4CCC4)C3)CC2)cc1 (racemic) [Example 116, {3-[(Cyclobutyloxy)methyl]-1,4′-bipiperidin-1′-yl}[4-(2-hydroxypropan-2-yl)phenyl]methanone (racemate)] | 7 |
| C[C@@H]1CN(C2CCN(C(=O)c3ccc(C(C)(C)C)cc3)CC2)CC[C@@H]1C (relative stereo) [Example 20, cis-1-[1-(4-tert-Butylbenzoyl)piperidin-4-yl]-3,4-dimethylpiperidine trifluoroacetic acid salt] | 117 |
| CC1CCCN(C2CCN(C(=O)c3ccc(C(C)(C)C)cc3)CC2)C1 (single isomer, unassigned) [Example 6, (4-tert-Butylphenyl)(3-methyl-1,4′-bipiperidin-1′-yl)methanone, (−)-enantiomer] | 91 |
| CCC1CCCN(C2CCN(C(=O)c3ccc(C(C)(C)O)cc3)CC2)C1 (single isomer, unassigned; enantiomer 1) [Example 115, [3-Ethyl-1,4′-bipiperidin-1′-yl][4-(2-hydroxypropan-2-yl)phenyl]methanone (enantiomer 1)] | 22 |
| CC(C)(O)c1ccc(C(=O)N2CCC(N3CCCC(OCC4CC4)C3)CC2)cc1 (single isomer, unassigned; enantiomer 1) [Example 129, [3-(Cyclopropylmethoxy)-1,4′-bipiperidin-1′-yl][4-(2-hydroxypropan-2-yl)phenyl]methanone hydrochloride (enantiomer 1)] | 16 |
| CC(C)(O)c1ccc(C(=O)N2CCC(N3CCCC(COC4CCC4)C3)CC2)cc1 (single isomer, unassigned; enantiomer 2) [Example 117, {3-[(Cyclobutyloxy)methyl]-1,4′-bipiperidin-1′-yl}[4-(2-hydroxypropan-2-yl)phenyl]methanone (enantiomer 2)] | 5 |
| CCOC[C@@H]1CCCN(C2CCN(C(=O)c3ccc(C(C)(C)O)cc3)CC2)C1 (single isomer, unassigned; enantiomer 2) [Example 121, [3-(Ethoxymethyl)-1,4′-bipiperidin-1′-yl][4-(2-hydroxypropan-2-yl)phenyl]methanone (enantiomer 2)] | 5 |
| COCC1CCCN(C2CCN(C(=O)c3ccc(C(C)(C)O)cc3)CC2)C1 (single isomer, unassigned; enantiomer 2) [Example 123] | 7 |
| CCOC(=O)C1CCCN(C2CCN(C(=O)c3ccc(C(C)(C)C)cc3)CC2)C1 (stereo not drawn) [Example 1, Ethyl 1′-[(4-tert-butylphenyl)carbonyl]-1,4′-bipiperidine-3-carboxylate] | 38 |
| CCOC(=O)c1ccc(C(=O)N2CCC(N3CCCC(C(=O)OCC)C3)CC2)cc1 (stereo not drawn) [Example 2, 3-(Ethoxycarbonyl)-1-{1-[4-(ethoxycarbonyl)benzoyl]piperidin-4-yl}piperidine trifluoroacetic acid salt] | 120 |
| CC1CCCN(C2CCN(C(=O)c3ccc(C(C)(C)C)c(Cl)c3)CC2)C1 (stereo not drawn) [Example 3, (3-Chloro-4-tert-butylphenyl)(3-methyl-1,4′-bipiperidin-1′-yl)methanone trifluoroacetic acid salt] | 268 |
| CC1CCCN(C2CCN(C(=O)c3ccc(C(C)C)cc3)CC2)C1 (stereo not drawn) [Example 4, (4-Isopropylphenyl)(3-methyl-1,4′-bipiperidin-1′-yl)methanone] | 294 |
| CC1CCCN(C2CCN(C(=O)c3ccc(C(C)(C)C)cc3)CC2)C1 (stereo not drawn) [Example 5, (4-tert-Butylphenyl)(3-methyl-1,4′-bipiperidin-1′-yl)methanone] | 99 |
| CC1CCCN(C2CCN(C(=O)c3ccc(C(C)(C)O)cc3)CC2)C1 (stereo not drawn) [Example 7] | 538 |
| CCOC(=O)C1CCCN(C2CCN(C(=O)c3ccc(C(C)(C)O)cc3)CC2)C1 (stereo not drawn) [Example 9, Ethyl 1′-[4-(2-hydroxypropan-2-yl)benzoyl]-1,4′-bipiperidine-3-carboxylate] | 44 |
